Experimental data published in US8802597B2, “Herbicidal pyrimidines” (E I du Pont de Nemours and Company, priority 2003, dated 2014).
Where two headings read alike, the source gives them in different places.

Legend:
Assay type in all cases: in vivo
[1] = system: eastern black nightshade (Solanum ptycanthum); test: Test C pre/postemergence; conditions: Preemergence
Method in brief: (§1)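 Seeds sown and sprayed preemergence with test compound in non-phytotoxic solvent containing surfactant; postemergence sprays, same formulation, went onto plants 2 to 18 cm tall (1- to 4-leaf stage). Plants held in greenhouse 12 to 14 days, then visually rated against untreated controls on a 0–100 scale (0 no effect, 100 complete control).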

[2] = system: woolly cupgrass (Eriochloa villosa); test: Test C pre/postemergence; conditions: for pest or weed control at 31 g/ha / pest or weed control at 62 g/ha / pest or weed control at 125 g/ha / pest or weed control at 250 g/ha: Eriochloa villosa; for pest or weed control at 31 g/ha: 31 g ai/ha
Method in brief: as §1

[3] = system: morningglory (Ipomoea coccinea); test: Test C pre/postemergence; conditions: for pest or weed control at 31 g/ha / pest or weed control at 62 g/ha / pest or weed control at 125 g/ha / pest or weed control at 250 g/ha: Ipomoea; for pest or weed control at 31 g/ha: 31 g ai/ha
Method in brief: as §1

[4] = system: chickweed (Stellaria media); test: Test C postemergence; conditions: for Plant response rating, Chickweed: scale 0 to 100
Method in brief: as §1

[5] = 62 g ai/ha, scale 0 to 100, 0 no effect, 100 complete control
[6] = Postemergence, 62 g ai/ha, scale 0 to 100 (0 no effect, 100 complete control)
[7] = Postemergence, 125 g ai/ha, scale 0 to 100 (0 no effect, 100 complete control)
[8] = Postemergence, 250 g ai/ha, scale 0 to 100
[9] = Postemergence, 500 g ai/ha, scale 0 to 100
[10] = Preemergence, 62 g ai/ha, scale 0 to 100, 0 no effect, 100 complete control
[11] = Preemergence, 125 g ai/ha, scale 0 to 100
[12] = Preemergence, 250 g ai/ha, scale 0 to 100
[13] = Preemergence, 500 g ai/ha, scale 0 to 100
[14] = 62 g ai/ha, scale 0 to 100 (0 no effect, 100 complete control)
[15] = 125 g ai/ha, scale 0 to 100 (0 no effect, 100 complete control)

Structure (SMILES): COC(=O)c1nc(C2CC2C)nc(N)c1Br (stereo not drawn) [Compound 28]
- Plant response rating, Nightshade [1, 5]: 100
- Plant response rating, Nightshade ([1]; 125 g ai/ha, scale 0 to 100): 100
- Plant response rating, Nightshade ([1]; 250 g ai/ha, scale 0 to 100): 100
- Plant response rating, Nightshade ([1]; 500 g ai/ha, scale 0 to 100): 100
- Cupgrass, Woolly plant response rating [2, 6]: 0
- Cupgrass, Woolly plant response rating [2, 7]: 0
- Plant response rating, Cupgrass, Woolly [2, 8]: 0
- Plant response rating, Cupgrass, Woolly [2, 9]: 0
- Plant response rating, Cupgrass, Woolly [2, 10]: 0
- Plant response rating, Cupgrass, Woolly [2, 11]: 0
- Plant response rating, Cupgrass, Woolly [2, 12]: 0
- Plant response rating, Cupgrass, Woolly [2, 13]: 0
- Morningglory plant response rating [3, 6]: 80
- Morningglory plant response rating [3, 7]: 95
- Plant response rating, Morningglory [3, 8]: 95
- Plant response rating, Morningglory [3, 9]: 95
- Plant response rating, Morningglory [3, 10]: 100
- Plant response rating, Morningglory [3, 11]: 100
- Plant response rating, Morningglory [3, 12]: 100
- Plant response rating, Morningglory [3, 13]: 100
- Chickweed plant response rating [4, 14]: 0
- Chickweed plant response rating [4, 15]: 0
- Plant response rating, Chickweed ([4]; 250 g ai/ha): 15
- Plant response rating, Chickweed ([4]; 500 g ai/ha): 20

Structure (SMILES): COC(=O)c1nc(C(C)C)nc(N)c1Br [Compound 3]
- pest or weed control at 31 g/ha ([1]; Solanum, pre-emergence, 31 g ai/ha, scale 0 to 100, 0 no effect, 100 complete control, read-out: Plant response rating, Nightshade): 0%
- pest or weed control at 62 g/ha ([1]; Solanum, pre-emergence, 62 g ai/ha, scale 0 to 100, 0 no effect, 100 complete control, read-out: Plant response rating, Nightshade): 0%
- pest or weed control at 125 g/ha ([1]; Solanum, pre-emergence, 125 g ai/ha, scale 0 to 100, read-out: Plant response rating, Nightshade): 0%
- pest or weed control at 250 g/ha ([1]; Solanum, pre-emergence, 250 g ai/ha, scale 0 to 100, read-out: Plant response rating, Nightshade): 20%
- pest or weed control at 31 g/ha ([2]; post-emergence, Postemergence, read-out: Plant response rating (scale of 0 to 100), Cupgrass, Woolly): 0%
- pest or weed control at 62 g/ha ([2]; post-emergence, Postemergence, 62 g ai/ha, scale 0 to 100 (0 no effect, 100 complete control), read-out: Cupgrass, Woolly plant response rating): 0%
- pest or weed control at 125 g/ha ([2]; post-emergence, Postemergence, 125 g ai/ha, scale 0 to 100 (0 no effect, 100 complete control), read-out: Cupgrass, Woolly plant response rating): 0%
- pest or weed control at 250 g/ha ([2]; post-emergence, Postemergence, 250 g ai/ha, scale 0 to 100, read-out: Plant response rating, Cupgrass, Woolly): 0%
- pest or weed control at 31 g/ha ([2]; pre-emergence, Preemergence, scale 0 to 100, 0 no effect, 100 complete control, read-out: Plant response rating, Cupgrass, Woolly): 0%
- pest or weed control at 62 g/ha ([2]; pre-emergence, Preemergence, 62 g ai/ha, scale 0 to 100, 0 no effect, 100 complete control, read-out: Plant response rating, Cupgrass, Woolly): 0%
- pest or weed control at 125 g/ha ([2]; pre-emergence, Preemergence, 125 g ai/ha, scale 0 to 100, read-out: Plant response rating, Cupgrass, Woolly): 0%
- pest or weed control at 250 g/ha ([2]; pre-emergence, Preemergence, 250 g ai/ha, scale 0 to 100, read-out: Plant response rating, Cupgrass, Woolly): 0%
- pest or weed control at 31 g/ha ([3]; post-emergence, Postemergence, read-out: Plant response rating (scale of 0 to 100), Morningglory): 45%
- pest or weed control at 62 g/ha ([3]; post-emergence, Postemergence, 62 g ai/ha, scale 0 to 100 (0 no effect, 100 complete control), read-out: Morningglory plant response rating): 60%
- pest or weed control at 125 g/ha ([3]; post-emergence, Postemergence, 125 g ai/ha, scale 0 to 100 (0 no effect, 100 complete control), read-out: Morningglory plant response rating): 65%
- pest or weed control at 250 g/ha ([3]; post-emergence, Postemergence, 250 g ai/ha, scale 0 to 100, read-out: Plant response rating, Morningglory): 75%
- pest or weed control at 31 g/ha ([3]; pre-emergence, Preemergence, scale 0 to 100, 0 no effect, 100 complete control, read-out: Plant response rating, Morningglory): 0%
- pest or weed control at 62 g/ha ([3]; pre-emergence, Preemergence, 62 g ai/ha, scale 0 to 100, 0 no effect, 100 complete control, read-out: Plant response rating, Morningglory): 0%
- pest or weed control at 125 g/ha ([3]; pre-emergence, Preemergence, 125 g ai/ha, scale 0 to 100, read-out: Plant response rating, Morningglory): 20%
- pest or weed control at 250 g/ha ([3]; pre-emergence, Preemergence, 250 g ai/ha, scale 0 to 100, read-out: Plant response rating, Morningglory): 35%
- pest or weed control at 31 g/ha ([4]; Stellaria media, post-emergence, 31 g ai/ha, read-out: Plant response rating (scale of 0 to 100), Chickweed): 0%
- pest or weed control at 62 g/ha ([4]; Stellaria media, post-emergence, 62 g ai/ha, scale 0 to 100 (0 no effect, 100 complete control), read-out: Chickweed plant response rating): 0%
- pest or weed control at 125 g/ha ([4]; Stellaria media, post-emergence, 125 g ai/ha, scale 0 to 100, read-out: Plant response rating, Chickweed): 0%
- pest or weed control at 250 g/ha ([4]; Stellaria media, post-emergence, 250 g ai/ha, scale 0 to 100, read-out: Plant response rating, Chickweed): 40%

Structure (SMILES): CNN=Cc1nc(C2CC2)nc(N)c1Br [Compound 49]
- Plant response rating, Nightshade [1, 5]: 95
- Plant response rating, Nightshade ([1]; 125 g ai/ha, scale 0 to 100): 100
- Plant response rating, Nightshade ([1]; 250 g ai/ha, scale 0 to 100): 100
- Plant response rating, Nightshade ([1]; 500 g ai/ha, scale 0 to 100): 100
- Cupgrass, Woolly plant response rating [2, 6]: 0
- Cupgrass, Woolly plant response rating [2, 7]: 15
- Plant response rating, Cupgrass, Woolly [2, 8]: 60
- Plant response rating, Cupgrass, Woolly [2, 9]: 65
- Plant response rating, Cupgrass, Woolly [2, 10]: 0
- Plant response rating, Cupgrass, Woolly [2, 11]: 0
- Plant response rating, Cupgrass, Woolly [2, 12]: 20
- Plant response rating, Cupgrass, Woolly [2, 13]: 25
- Morningglory plant response rating [3, 6]: 50
- Morningglory plant response rating [3, 7]: 70
- Plant response rating, Morningglory [3, 8]: 80
- Plant response rating, Morningglory [3, 9]: 100
- Plant response rating, Morningglory [3, 10]: 90
- Plant response rating, Morningglory [3, 11]: 95
- Plant response rating, Morningglory [3, 12]: 100
- Plant response rating, Morningglory [3, 13]: 100
- Chickweed plant response rating [4, 14]: 0
- Chickweed plant response rating [4, 15]: 0
- Plant response rating, Chickweed ([4]; 250 g ai/ha): 40
- Plant response rating, Chickweed ([4]; 500 g ai/ha): 45
